Holding throughout (type): biochemical
In assay [1] the target is T1, Human Fibroblast Collagenase (Homo sapiens, UniProt P03956).
T1 construct: All active MMPs are purified by gel filtration; made in house
T1 sequence (P03956 100-269 limits assumed): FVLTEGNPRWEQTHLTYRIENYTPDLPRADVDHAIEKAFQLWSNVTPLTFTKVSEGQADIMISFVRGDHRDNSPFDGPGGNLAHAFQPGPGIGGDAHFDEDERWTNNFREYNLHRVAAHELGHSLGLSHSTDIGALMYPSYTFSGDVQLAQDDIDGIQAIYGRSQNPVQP
Put plainly: inhibition of recombinant MMP, peptide substrate assay with fluorescamine detection (HFC). As to conditions: calculated from measured percent inhibition using Km, assuming competitive inhibition; Met1-Pro250 proenzyme, activated with p-aminophenylmercury.

The target in assay [2] is T2, Human Neutrophil Collagenase (Homo sapiens, UniProt P22894).
T2 construct: expressed as mature enzymes with C-terminal truncations, Phe83-Thr260 and Met100-Gly262, respectively; made in house
T2 sequence (P22894 100-262): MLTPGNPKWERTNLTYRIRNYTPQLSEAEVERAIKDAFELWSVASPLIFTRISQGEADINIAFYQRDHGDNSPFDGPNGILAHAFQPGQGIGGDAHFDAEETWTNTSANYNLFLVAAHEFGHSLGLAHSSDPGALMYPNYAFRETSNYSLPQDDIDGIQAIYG
Put plainly: inhibition of recombinant MMP, peptide substrate assay with fluorescamine detection (HNC). As to conditions: calculated from measured percent inhibition using Km, assuming competitive inhibition; Met100-Gly262.

For assay [3], the target named is T3, Human Fibroblast Stromelysin (Homo sapiens, UniProt P08254).
T3 construct: expressed as mature enzymes with C-terminal truncations, Phe83-Thr260 and Met100-Gly262, respectively; made in house
T3 sequence (P08254 100-277): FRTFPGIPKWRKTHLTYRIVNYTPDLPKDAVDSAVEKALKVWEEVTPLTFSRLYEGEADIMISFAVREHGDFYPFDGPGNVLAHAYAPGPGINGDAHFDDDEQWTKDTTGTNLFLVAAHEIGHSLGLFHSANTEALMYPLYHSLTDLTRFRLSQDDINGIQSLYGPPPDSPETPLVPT
In words: inhibition of recombinant MMP, peptide substrate assay with fluorescamine detection (HFS).

Molecules are shown by their SMILES. pKi: −log10 of the molar value.

The pKi is −log10 of the Ki, conventionally taken in molar units.

Take `CNC(=O)[C@H](Cc1ccccc1)NC(=O)[C@H](CCCCOCc1ccccc1)CC(=O)NO` [Example 2, N-[(2R)-2-[2'-(Hydroxyamino)-2'(oxo)ethyl]-6-(phenylmethoxy)hexanoyl]-L-phenylalanine N-methylamide]: the pKi in assay [1] was 5.84.
For the molecule `CNC(=O)[C@H](Cc1ccccc1)NC(=O)[C@H](CCCCO)CC(=O)NO` [Example 3, N-[(2R)-2-[2'-(hydroxyamino)-2'-(oxo)ethyl]-6-(hydroxy)hexanoyl]-L-phenylalanine N-methylamide], the pKi in assay [1] is 7.52; in assay [2], 8.15.
`CNC(=O)[C@H](Cc1ccccc1)NC(=O)[C@H](CCCC(=O)O)CC(=O)NO` [Example 4, N-[(2R)-2-[2'-(Hydroxyamino)-2'-(oxo)ethyl]-5-(carboxy)pentanoyl]-L-phenylalanine N-methylamide]: the pKi in assay [2] was 6.57.
For the molecule `CCCNC(=O)CCC[C@H](CC(=O)NO)C(=O)N[C@@H](Cc1ccccc1)C(=O)NC` [Example 5, N-[(2R)-2-[2'-(Hydroxyamino)-2'-(oxo)ethyl]-6-(propylamino)-6-(oxo)hexanoyl]-L-phenylalanine N-methylamide], the results for the pKi in assay [1] and in assay [2] were 5.29 and above 8.70, respectively.
As to `CNC(=O)[C@H](Cc1ccccc1)NC(=O)[C@H](CCCC(C)O)CC(=O)NO` (stereo partly drawn) [Example 6, N-[(2R)-2-[2'-(Hydroxyamino)-2'-(oxo)ethyl]-(6RS)-6-(hydroxy)heptanoyl]-L-phenylalanine N-methylamide], the results for the pKi in assay [1], in assay [3] and in assay [2] were 6.82, 5.82 and 7.70, respectively.
On the same counts, the results for `CNC(=O)[C@@H](NC(=O)[C@H](CCCCOCc1ccccc1)CC(=O)NO)C(C)(C)C` [Example 8, (2S)-N-2-[(2'R)-2'-[2"-(Hydroxyamino)-2"-(oxo)ethyl]-6'-(phenylmethoxy)hexanoyl]amino-3,3-dimethylbutanoic acid N-methylamide] are 5.85, 7.24 and 8.30.
On the same counts, the results for `CNC(=O)[C@@H](NC(=O)[C@H](CCCCO)CC(=O)NO)C(C)(C)C` [Example 9, (2S)-N-2-[(2'R)-2'-[2"-(Hydroxyamino)-2"-(oxo)ethyl]-6'-(hydroxy)hexanoyl]amino-3,3-dimethylbutanoic acid N-methylamide] are 7.57, 5.30 and 7.77.
`CNC(=O)[C@H](Cc1ccccc1)NC(=O)[C@H](CCCOCc1ccccc1)CC(=O)NO` [Example 10, N-[(2R)-2-[2'-(Hydroxyamino)-2'-(oxo)ethyl]-5-(phenylmethoxy)pentanoyl]-L-phenylalanine N-methylamide]: the negative-log Ki (pKi) in assay [1] was 5.64.
For the molecule `CNC(=O)[C@H](Cc1ccccc1)NC(=O)[C@H](CCCCCOCc1ccccc1)CC(=O)NO` [Example 11, N-[(2R)-2-[2'-(Hydroxyamino)-2'-(oxo)ethyl]-7-(phenylmethoxy)heptanoyl]-L-phenylalanine N-methylamide], the values for the pKi in assay [1] and in assay [2] were 6.04 and 8.40, respectively.
As for `CCCC(=O)NCCCC[C@H](CC(=O)NO)C(=O)N[C@@H](Cc1ccccc1)C(=O)NC` [Example 12], the values for the pKi in assay [1] and in assay [2] were 5.80 and 6.92, respectively.
In the case of `CNC(=O)[C@H](Cc1ccccc1)NC(=O)[C@H](CCCCOc1ccccc1)CC(=O)NO` [Example 13, N-[(2R)-2-[2'-(Hydroxyamino)-2'-(oxo)ethyl]-6-(phenoxy)-hexanoyl]-L-phenylalanine N-methylamide], the pKi in assay [1] was 8.10.
As to `CNC(=O)[C@@H](NC(=O)[C@H](CCCC(=O)NCCc1ccccc1)CC(=O)NO)C(C)(C)C` [Example 15, (2S)-N-2'-[(2'R)-2'-[2"-(Hydroxyamino)-2"-(oxo)ethyl]-6'-(2-phenethylamino)-6' (oxo)hexanoyl]amino-3,3-dimethylbutanoic acid N-methylamide], the figures for the pKi in assay [1], in assay [3] and in assay [2] were 7.46, 7.59 and 7.80, respectively.
With `CNC(=O)[C@@H](NC(=O)[C@H](CCCCOc1ccc(C)cc1)CC(=O)NO)C(C)(C)C` [Example 16, (2S)-N-2'-[(2'R)-2'-[2"-(Hydroxyamino)-2"-(oxo)ethyl]-6'-(4-methylphenoxy)hexanoyl]amino-3,3-dimethylbutanoic acid N-methylamide], in assay [1], the pKi is 7.85.
Same read-out and setting: next, `CNC(=O)[C@@H](NC(=O)[C@H](CCCCOc1ccc(Cl)cc1)CC(=O)NO)C(C)(C)C` [Example 17, (2S)-N-2'-[(2'R)-2'-[2"-(Hydroxyamino)-2"-(oxo)ethyl]-6'-(4-chlorophenoxy)hexanoyl]amino-3,3-dimethylbutanoic acid N-methylamide]: 7.68.
As for `CNC(=O)[C@@H](NC(=O)[C@H](CCCCOc1cccc(C)c1)CC(=O)O)C(C)(C)C` [Example 19, (2S)-N-2'-[(2'R)-2'-(carboxymethyl)-6'-(3-methylphenoxy)hexanoyl]amino-3,3-dimethylbutanoic acid N-methylamide], the pKi in assay [1] was 5.74; in assay [3], 6.66.

Values taken from US5618844A, “Hydroxamic acid and carboxylic acid derivatives, process for their preparation and use thereof” (Sanofi S.A., priority 1995, dated 1997).
